According to publication PMC12326358, “Effect of Quantitative Structural Properties and Drug Formulation in Four Cannabinoids (Cannabidiol, Cannabigerol, Cannabichromene, and Cannabinol) on Their Lymphatic Transport after Enteral Administration in Rats” (Molecular Pharmaceutics, 2025):
“And” between values parts separate entries of the source, which are not always exact repeats. Identical values can stand only once. Like-named read-outs stand apart in the source and are kept apart here.

Assays:
[1] = type: physicochemical; conditions: final nanoemulsion
Procedure: To test pharmacokinetic parameters for various cannabinoids, the self-emulsifying drug delivery system (SEDDS) was selected due to its facile preparation and as it has shown an enhanced absorption profile for CBD.1 However, prior to administration the oil phase was mixed with water forming nanoemulsion to decrease viscosity and facilitate application to rats. […]
formulation is in the paper referred to as nanoemulsion.
In general, the nanoemulsion was prepared as follows. First, the oil phase containing Propylene glycol monocaprylate (PGMC), surfactant Kolliphor EL (CR-EL), co-surfactant and cannabinoid was prepared and thoroughly homogenized. As co-surfactants, we tested three compounds:
Diethylene glycol monoethyl ether (TRSC) or Ethyl alcohol (ETOH) or Propylene glycol (PRGL).
Next, four parts of water with respect to one part of oil (by weight) were added dropwise to the oil mixture at mild stirring. The stability of prepared nanoemulsions (initially without cannabinoids) was evaluated using dynamic light scattering (LS Instruments, Switzerland). […] and unstable samples, characterized by very high turbidity or phase separation, respectively, were not further analyzed. Optimization results are shown in the form of ternary diagrams for three tested co-surfactants (TRSC, ETOH, PRGL) in Fig. S1.
According to the manufacturer, CBD is most soluble in PGMC among other products.2 High solubility was also expected for other cannabinoids, thus PGMC was chosen as a suitable oil-phase base for nanoemulsion formulation in this study. Next, CR-EL was selected as a surfactant capable of forming nanoemulsions with PGMC in a wide range of concentrations (based on previous non-published experiments). To optimize the composition, stability and the size dependence of various emulsion mixtures were investigated for systems containing the aforementioned components and selected co-surfactants – TRSC, ETOH and PRGL (without cannabinoids). According to the […]
with desirable sizes (Fig. S1). Furthermore, TRSC is a proven skin permeation enhancer and solubilizer. Moreover, as shown by Franceschinis et al., TRSC acted as an excellent absorption […]
enhancer for 4,6,4′trimethylangelicin during oral administration. […]
co-surfactant and solubilizer for the final formulation tested in the pharmacokinetic study.
The final composition of nanoemulsion was chosen based on the compromise between the cannabinoids' loading capacity and the used surfactant amount. The final formulation contained 50wt.% of CR-EL, 30wt.% of TRSC and 20wt.% of PGMC. Long-term stability for the optimized formulation was tested for two cannabinoid concentrations – 15 mg/ml and 30 mg/ml. Results are shown in Tab. S1. The size was below 30 nm even after 30 days for all cannabinoids at 15mg/ml […]
Although all formulations were stable over time and to avoid any colloid instability and cannabinoid decomposition, the water phase was added to the oil phase directly before application in pharmacokinetic study.

[2] = man, cited from earlier work
[3] = Log P measurement, octanol–water system; type: physicochemical
Procedure: There are only calculated log P values available for CBD, CBG, CBC and CBN (range 6.1–7.4). Therefore, log P was measured experimentally for all four cannabinoids during this study. The partition coefficient describes the distribution of a tested compound in a two-phase octanol–water system. It is defined as a ratio of concentrations of the un-ionized compound in octanol and water at equilibrium. Cannabinoids were weighed (2 mg) and dissolved in 2.5 mL of octanol, followed by the addition of 2.5 mL of deionized water. The mixture was shaken for 2 h and then allowed to separate for 24 h. Twenty μL of the aqueous (bottom) phase was transferred into an LC vial, diluted with 60 μL of an appropriate IS at a concentration of 30 ng/mL, and analyzed using the aforementioned UHPLC-MS/MS method. The experiment was repeated five times for each cannabinoid.
Due to the highly lipophilic character of cannabinoids, their concentration in the organic phase is several orders of magnitude higher than the concentration in the aqueous phase. As a result, the difference in the total amount of cannabinoids and the amount present in the organic phase is very small and falls within the experimental error of the analytical method. Therefore, log P values were calculated based on the measured cannabinoid concentration in the aqueous phase, while the concentration in the octanol phase was calculated from the initial amount of the cannabinoid used and its measured concentration in the aqueous phase. […] Due to the very low concentrations of CBD and CBC in the aqueous phase, which fell below the LOQ of both methods, we were unable to determine the log P for these two cannabinoids.

[4] = cited from earlier work; for absolute oral bioavailability: species not printed at place, ref reports published so far
[5] = design: method as in published earlier (Table 1 footnote a); conditions: nanoemulsion, IV, rats, 1 mg CBD, mean ± SD, ref published earlier (Table 1 footnote a), cited from earlier work
[6] = dogs, oral; cited from earlier work
[7] = octanol–water, from measured aqueous phase concentration, lower bounds based on LOQ, n = 5, read-out: Log P

Row | SMILES | DLS, 90° size ([1]; cannabinoid 15 mg/ml, 1 day) [nm] | DLS, 90° size ([1]; cannabinoid 15 mg/ml, 30 days) [nm] | DLS, 90° size ([1]; cannabinoid 30 mg/ml, 1 day) [nm] | DLS, 90° size ([1]; cannabinoid 30 mg/ml, 30 days) [nm] | Tmax ([2]; oral administration) [h] | logP [3, 7] | oral bioavailability ([4]; rats, lipid-free formulation) | oral bioavailability ([4]; rats, long-chain triglycerides-based formulation) [%] | absolute oral bioavailability ([4]; sunflower oil-based microemulsion) [%] | absolute oral bioavailability ([4]; sunflower oil) [%] | oral bioavailability ([2]; estimated) [%] | bioavailability increase when taken with food ([2]; oral) | AUC(0-inf) ([5]; dose-normalized to 1 mg/kg) [ng·h/mL] | T1/2 [5] [h] | Vss [5] [L/kg] | Cmax ([5]; serum, dose-normalized to 1 mg/kg) [ng/mL] | average Tmax [6] [h] | logP [3] | Tmax ([4]; rats, oral administration) [h]
1 | CCCCCc1cc(O)c2c(c1)OC(C)(CCC=C(C)C)C=C2 (stereo not shown) [CBC, cannabichromene] | 25 | 25 | 40 | 34 | 2 to 4 | > 6.7 | – | – | – | – | – | – | – | – | – | – | – | – | –
2 | C=C(C)[C@@H]1CCC(C)=C[C@H]1c1c(O)cc(CCCCC)cc1O [CBD, cannabidiol] | 26 | 26 | 200 | 222 | – | > 6.3 | 8.5% and 8% | 22 | 25 | 14 | < 10 | up to 4 fold | 623 ± 141 | 2.5 ± 0.5 | 2.9 ± 1.1 | 845 ± 253 | – | – | –
3 | CCCCCc1cc(O)c(C/C=C(\C)CCC=C(C)C)c(O)c1 [CBG, cannabigerol] | 31 | 32 | – | – | – | – | – | – | – | – | – | – | – | – | – | – | 0.75 | 7.2 | –
4 | CCCCCc1cc(O)c2c(c1)OC(C)(C)c1ccc(C)cc1-2 [CBN, cannabinol] | 27 | 27 | 67 | 68 | – | 6.2 | – | – | – | – | – | – | – | – | – | – | – | – | 1.5 to 3
